# In patent publication US7981898B2, “Methods of enhancing mucosal hydration and mucosal clearance by treatment with sodium channel blockers and osmolytes” (Parion Sciences, Inc., priority 2006, dated 2011):
# System: Primary canine bronchial epithelia (CBE)
# Assay: Gravimetric measurement of surface liquid volume on primary bronchial epithelial cultures at air-liquid interface (Assay #4)
# Assay type: cell-based
# Method: 4. Durability of Novel ENaC Blockers with or without Osmolytes on Airway Surface Liquid on an in vitro Cell Culture Model.
# Using a gravimetric (weighing) procedure, the luminal surface liquid (mass/volume) on primary bronchial epithelial cultures grown at an air/liquid interface on permeable membrane supports (Corning) are measured, and changes in luminal surface liquid volume are recorded for up to 8 h. An applied starting volume of buffer (Krebs-Henseleit Bicarbonate Buffer Solution) with and without equimolar concentrations (0.1-100 μM) of selected novel or commercially available sodium channel blockers with or without osmolytes are added and at which point the experiment is started. The permeable supports are then reweighted at select time points and the mass/volume recorded. The data is then analyzed determining the changes in surface liquid mass/volume form beginning to the end of the 8 hour time frame.
# To measure the effects of novel sodium channel blockers with or without osmotically active agents on surface liquid volume on airway surface liquid an in vitro cell culture model was used as described above, Assay #4. The effects of an ionic osmolyte, 1.5% NaCl (hypertonic saline), with or without 10 μM of compound 1 before and after adding 1.5% NaCl and compared it to isotonic buffer (vehicle) (FIG. 1) on surface liquid volume was measured over 8 hours. Using the same method (Assay #4) the effects of a non-ionic osmolyte mannitol at 4.2 and 8.4 mg/mL were compared to compound 1 and isotonic buffer (vehicle) (FIG. 2), and also by combining mannitol (4.2 and 8.4 mg/mL) with compound 1 at 1 and 10 μM (FIG. 3) on surface liquid volume was measured. The effects of compound 2 with an ionic osmolyte, 1.5% NaCl (hypertonic saline), was compared to compound 1 and hypertonic saline (1.5% NaCl), compound 1 in isotonic buffer, compound 2 in isotonic buffer, 1.5% NaCl, and isotonic buffer (vehicle) (FIG. 4) on changes in surface liquid over 8 hours. […]
compound,measurement,setting,value
N=C(NCCCCc1ccc(OCC(O)CO)cc1)NC(=O)c1nc(Cl)c(N)nc1N (stereo not drawn) [Compound 1],volume expansion,"Compound 1 (10 μM) with pre or post administration of 1.5% NaCl solution, maintained for 8 hours, n=12",132+13%
same,inhibition of volume depletion (surface liquid volume),"Compound 1 alone at 10 μM, for over 8 hours",74.7 ± 8.7%
same,duration of the increase in ASL volume,hypertonic saline (1.5% NaCl) combined with Compound 1 (10 μM),over 8 h
